In patent US11426367B2, “Methods of treating substance abuse” (Perception Neuroscience, Inc., priority 2018, dated 2022):

Columns and labels:
Type in all cases: in vivo
[1] = test system: DEX-treated mice; test: Tail suspension test (TST), neonatal dexamethasone exposure model of depression; details: juvenile DEX-treated mice, 10 mg/kg i.p. single injection
Procedure: A new animal model of depression was prepared by exposing mice neonatally to dexamethasone (hereinafter abbreviated as DEX). […] The mouse model was prepared and reported only recently by the inventors of the present application and their collaborators (Non Patent Literature 18). […] Further, alterations were found in levels of amino acids (glutamate, glutamine, glycine, D-serine, and L-serine) in mouse brains after the neonatal DEX exposure (Non Patent Literature 18). Those amino acids are known to be associated with NMDA receptor mediated neurotransmission. Thus, it is conceivable that alterations in glutamatergic transmission via the NMDA receptor after the neonatal DEX exposure may be involved in the depression-like behavior in the juvenile mice and the adult mice (Non Patent Literature 18).
The preparation of the animal model of depression and the administration of the agent were specifically performed as described below (FIG. 2A). Male and female ICR mice (9-week-old, Japan SLC, Inc., Hamamatsu, Japan) were used. The mice were given free access to water and feed. A breeding procedure consisted of housing three to four females with one male, for 14 days. On the final day of this period, the females were placed in isolation and checked daily around the expected delivery day. The day of birth was defined as day 0. The mice were injected intraperitoneally with DEX (Wako Pure Chemical Industries, Ltd., Tokyo, Japan) dissolved in saline on day 1, day 2, and day 3 at doses of 0.5 mg/kg body weight, 0.3 mg/kg body weight, and 0.1 mg/kg body weight, respectively. In addition, normal controls were injected with equal volumes (10 ml/kg) of saline.
The antidepressant effects of the agent were investigated for juvenile mice by behavioral tests such as the TST, the PST, the LMT, and a 1% sucrose preference test (SPT) (FIG. 2A). The TST and the PST were performed twice, i.e., the day (27 hours and 29 hours, respectively) and 7 days after the injection of ketamine, and the LMT and the SPT were performed on the day and 2 days after the injection of ketamine. The TST was performed as described below. First, the mice were taken out from cages, and then a small piece of an adhesive tape was bonded onto a portion approximately 2 cm away from the tip of the tail of the mice. […] The immobility time of each mouse was recorded for 10 minutes. […] The immobility time was calculated as a value obtained by subtracting active time from total time, using the analysis software of the apparatus. Cumulative immobility time was recorded over 6 minutes during a test period. […] The locomotor activity of the mice was counted with SCANET MV-40, and the cumulative exercise of the mice was recorded for 60 minutes. […]

[2] = test system: Control C57/B6 mice; test: Locomotion-enhancing effect in control mice
Procedure: An effect of ketamine on the locomotion of mice was tested using SCANET MV-40 ([…] Co., Ltd., Toyama, Japan). Specifically, the locomotion was measured for a total of 180 minutes, i.e., 60 minutes before injection to 120 minutes after injection, and calculated as a locomotion per 10 minutes. The statistical analysis of the results of the locomotion was performed by repeated one-way analysis of variance (repeated one-way ANOV A), followed by a least significant difference test (LSD test).

[3] = test system: social defeat stress mice; test: Forced swimming test (FST), social defeat stress model; details: 10 mg/kg i.p.
Procedure: A social defeat stress model of depression was prepared by bringing C57/B6 male mice into contact with ICR male mice (large aggressive mice) for 10 consecutive days to apply a stress called a “social defeat stress” in accordance with the previous report (Non Patent Literature 19). […] Specifically, an increase in immobility time was found in each of a tail suspension test (TST) and a forced swimming test (FST).
The preparation of the animal model of depression and the administration of the agent were specifically performed as described below (FIG. 3A). Male C57/B6 mice (7-week-old, Japan SLC, Inc., Hamamatsu, Japan) and ICR mice (9-week-old, Japan SLC, Inc., Hamamatsu, Japan) were used. The mice were given free access to water and feed. A social defeat stress was applied by housing one C57/B6 mouse with one ICR mouse for 10 days.
The antidepressant effects of the agent were investigated by behavioral tests such as the TST, the PST, the LMT, and a 1% sucrose preference test (SPT) (FIG. 3A). The 1% sucrose preference test (SPT) was performed on 1 day and 6 days after the injection of ketamine. Each of the TST and the PST was performed on 2 days and 7 days after the injection of ketamine. The TST was performed as described below. First, the mice were taken out from cages, and then a small piece of an adhesive tape was bonded onto a portion approximately 2 cm away from the tip of the tail of the mice. A small hole was opened in the small piece, and the mice were each fixed upside down on a hook through the small hole. The immobility time of each mouse was recorded for 10 minutes. Mice were considered immobile only when they hung passively and completely motionless. The immobility time increases in a depressive state. The PST was performed as described below. First, the mice were placed individually in a cylinder (diameter: 23 cm; height: 31 cm) containing 15 cm of water, maintained at 22 to 24 deg C. The mice were tested in an automated forced-swimming apparatus using SCANET MV-40 ([…] Co., Ltd., Toyama, Japan). The immobility time was calculated as a value obtained by subtracting active time from total time, using the analysis software of the apparatus. Cumulative immobility time was recorded over 6 minutes during a test period. The LMT was performed as described below. First, the mice were placed in experimental cages (length×width×height: 560×560×330 mm). The locomotor activity of the mice was counted with SCANET MV-40, and the cumulative exercise of the mice was recorded for 60 minutes. The cages were cleaned between testing session. The immobility time increases in a depressive state. […] A spine density was quantitatively evaluated by observation with a KEYENCE microscope (BZ-9000, Osaka, Japan).

Structure (SMILES)	immobility time in the TST ([1]; 27 hours after injection)	immobility time in the TST ([1]; 7 days after injection)	locomotion after injection ([2]; control mice, 5, 10 or 20 mg/kg)	immobility time in the FST ([3]; 2 days after injection)	immobility time in the FST ([3]; 7 days after injection)	time after injection at which locomotion returned to a normal value ([2]; control mice, 10 mg/kg or 20 mg/kg)	locomotion after injection ([2]; control mice, 10 mg/kg or 20 mg/kg, 10 minutes and 20 minutes after injection, vs saline)
CN[C@@]1(c2ccccc2Cl)CCCCC1=O.Cl [R(−)-ketamine]	markedly reduced the immobility time	significantly reduced the immobility time	did not affect the locomotion	markedly reduced the immobility time	significantly reduced the immobility time	–	–
CN[C@]1(c2ccccc2Cl)CCCCC1=O [S(+)-ketamine]	markedly reduced the immobility time	did not reduce the immobility time	–	markedly reduced the immobility time	significantly reduced the immobility time	30 min	significant increase in locomotion
